Experimental data from the NIST ThermoML archive (doi:10.1021/je050010l).

Assays:
[1] = xn = mol fraction of the nth substance listed; details: 100.8 kPa, Liquid; for viscosity: Capillary tube (Ostwald / Ubbelohde) method
[2] = refractive index (Na D-line) (dimensionless); xn = mol fraction of the nth substance listed; details: 100.8 kPa, Liquid, Standard Abbe refractometry

CC(C)CC(C)(C)C [2,2,4-trimethylpentane] + CCO
Details | mass density, 288.15 K [kg/m3] | mass density, 298.15 K [kg/m3] | mass density, 308.15 K [kg/m3] | refractive index, 288.15 K | refractive index, 298.15 K | refractive index, 308.15 K | viscosity, 288.15 K [mPa·s] | viscosity, 298.15 K [mPa·s] | viscosity, 308.15 K [mPa·s]
[1], x2 = 0 | 695.95 | 687.74 | 679.41 | – | – | – | 0.537 | 0.48 | 0.432
[1], x2 = 0.0502 | 697.2 | 688.84 | 680.36 | – | – | – | 0.532 | 0.473 | 0.424
[1], x2 = 0.1 | 698.76 | 690.33 | 681.76 | – | – | – | 0.535 | 0.476 | 0.426
[1], x2 = 0.15 | 700.55 | 692.11 | 683.52 | – | – | – | 0.542 | 0.48 | 0.429
[1], x2 = 0.2 | 702.53 | 694.07 | 685.43 | – | – | – | 0.551 | 0.487 | 0.434
[1], x2 = 0.25 | 704.71 | 696.21 | 687.56 | – | – | – | 0.564 | 0.497 | 0.441
[1], x2 = 0.3 | 707.1 | 698.57 | 689.88 | – | – | – | 0.58 | 0.51 | 0.451
[1], x2 = 0.35 | 709.71 | 701.17 | 692.45 | – | – | – | 0.601 | 0.526 | 0.462
[1], x2 = 0.4 | 712.6 | 704.03 | 695.3 | – | – | – | 0.625 | 0.543 | 0.476
[1], x2 = 0.45 | 715.8 | 707.2 | 698.44 | – | – | – | 0.652 | 0.565 | 0.492
[1], x2 = 0.5 | 719.31 | 710.68 | 701.91 | – | – | – | 0.682 | 0.588 | 0.51
[1], x2 = 0.55 | 723.22 | 714.59 | 705.8 | – | – | – | 0.718 | 0.615 | 0.531
[1], x2 = 0.6 | 727.55 | 718.9 | 710.11 | – | – | – | 0.755 | 0.645 | 0.554
[1], x2 = 0.65 | 732.37 | 723.73 | 714.93 | – | – | – | 0.797 | 0.677 | 0.58
[1], x2 = 0.7 | 737.81 | 729.14 | 720.34 | – | – | – | 0.843 | 0.715 | 0.609
[1], x2 = 0.75 | 743.99 | 735.34 | 726.54 | – | – | – | 0.894 | 0.755 | 0.642
[1], x2 = 0.8 | 751.11 | 742.37 | 733.58 | – | – | – | 0.952 | 0.801 | 0.678
[1], x2 = 0.85 | 759.27 | 750.54 | 741.75 | – | – | – | 1.018 | 0.854 | 0.72
[1], x2 = 0.9 | 768.81 | 760.17 | 751.44 | – | – | – | 1.095 | 0.915 | 0.769
[1], x2 = 0.95 | 780.26 | 771.59 | 762.84 | – | – | – | 1.19 | 0.991 | 0.828
[2], x2 = 0 | – | – | – | 1.39404 | 1.389 | 1.38395 | – | – | –
[2], x2 = 0.0502 | – | – | – | 1.39319 | 1.3881 | 1.38297 | – | – | –
[2], x2 = 0.1 | – | – | – | 1.39241 | 1.3873 | 1.38217 | – | – | –
[2], x2 = 0.15 | – | – | – | 1.39162 | 1.38651 | 1.38138 | – | – | –
[2], x2 = 0.2 | – | – | – | 1.39081 | 1.38569 | 1.38056 | – | – | –
[2], x2 = 0.25 | – | – | – | 1.38996 | 1.38485 | 1.37972 | – | – | –
[2], x2 = 0.3 | – | – | – | 1.38907 | 1.38397 | 1.37885 | – | – | –
[2], x2 = 0.35 | – | – | – | 1.38811 | 1.38304 | 1.37794 | – | – | –
[2], x2 = 0.4 | – | – | – | 1.38709 | 1.38204 | 1.37696 | – | – | –
[2], x2 = 0.45 | – | – | – | 1.38597 | 1.38099 | 1.37593 | – | – | –
[2], x2 = 0.5 | – | – | – | 1.38479 | 1.37984 | 1.3748 | – | – | –
[2], x2 = 0.55 | – | – | – | 1.3835 | 1.37858 | 1.37358 | – | – | –
[2], x2 = 0.6 | – | – | – | 1.38209 | 1.37722 | 1.37227 | – | – | –
[2], x2 = 0.65 | – | – | – | 1.38055 | 1.37573 | 1.37083 | – | – | –
[2], x2 = 0.7 | – | – | – | 1.37884 | 1.37408 | 1.36922 | – | – | –
[2], x2 = 0.75 | – | – | – | 1.37694 | 1.37225 | 1.36745 | – | – | –
[2], x2 = 0.8 | – | – | – | 1.37484 | 1.3702 | 1.3655 | – | – | –
[2], x2 = 0.85 | – | – | – | 1.37249 | 1.36792 | 1.3633 | – | – | –
[2], x2 = 0.9 | – | – | – | 1.36984 | 1.36536 | 1.36085 | – | – | –
[2], x2 = 0.95 | – | – | – | 1.36684 | 1.36248 | 1.35812 | – | – | –
